As usually defined, the EC50 is the midpoint of the concentration-response curve.

These results are taken from patent US9796711B2, “Substituted pyrazolo[3,4-b]pyridin-6-carboxylic acids and method of use” (AbbVie S.àr.l., priority 2015, dated 2017).

Experiment [1] has as its target T1, ΔF508-CFTR (Homo sapiens, UniProt P13569, DEL508-508).
T1 construct: host or cells: CFBE41o-, doxycycline-inducible
The experiment can be described thus: CFTR cell surface levels using HRP-tagged ΔF508-CFTR expressing CFBE cells, in the presence of a co-corrector. The settings on record: HRP-tagged ΔF508-CFTR expressing CFBE cells, in the presence of 3 μM co-corrector; for EC50: read-out: EC50. Type of experiment: cell-based. In a few lines: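 Cells were seeded with 0.5 μg/mL doxycycline and held 68 h at 37 °C. Test compounds plus 3 μM co-corrector (final 0.1% DMSO) were then added for 20 h at 33 °C. Washed cells received HRP substrate, and luminescence was normalized between DMSO and 3 μM co-corrector controls.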

Experiment [2] concerns the target T1, ΔF508-CFTR. Nature of the experiment: CFTR cell surface levels using HRP-tagged ΔF508-CFTR expressing CFBE cells, intrinsic corrector capacity. Type of experiment: cell-based. The following applies: for EC50: read-out: EC50. A digest of the protocol: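 Here the cells express ΔF508-CFTR with horseradish peroxidase inserted in extracellular loop 4, so only rescued channel at the surface gives luminescent signal. Compounds act on their own, 20 h at the reduced temperature of 33 °C; values are percent activity relative to DMSO and a 3 μM corrector.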

Setting [3] is: HRP-tagged ΔF508-CFTR expressing CFBE cells, intrinsic corrector capacity (no co-corrector), 33° C., 20 hours.
Where [4] appears, read: HRP-tagged ΔF508-CFTR CFBE41o- cells, compounds alone (intrinsic corrector capacity), 20 hours at 33° C., positive control 3 μM corrector.
[5] abbreviates: HRP-tagged ΔF508-CFTR CFBE41o- cells, compounds alone (intrinsic corrector capacity), 20 hours at 33° C.
Setting [6] is: HRP-tagged ΔF508-CFTR CFBE cells, compound alone (intrinsic corrector capacity), 20 hours at 33° C.

T1 sequence (P13569 with tags, fused parts or gaps DEL508-508): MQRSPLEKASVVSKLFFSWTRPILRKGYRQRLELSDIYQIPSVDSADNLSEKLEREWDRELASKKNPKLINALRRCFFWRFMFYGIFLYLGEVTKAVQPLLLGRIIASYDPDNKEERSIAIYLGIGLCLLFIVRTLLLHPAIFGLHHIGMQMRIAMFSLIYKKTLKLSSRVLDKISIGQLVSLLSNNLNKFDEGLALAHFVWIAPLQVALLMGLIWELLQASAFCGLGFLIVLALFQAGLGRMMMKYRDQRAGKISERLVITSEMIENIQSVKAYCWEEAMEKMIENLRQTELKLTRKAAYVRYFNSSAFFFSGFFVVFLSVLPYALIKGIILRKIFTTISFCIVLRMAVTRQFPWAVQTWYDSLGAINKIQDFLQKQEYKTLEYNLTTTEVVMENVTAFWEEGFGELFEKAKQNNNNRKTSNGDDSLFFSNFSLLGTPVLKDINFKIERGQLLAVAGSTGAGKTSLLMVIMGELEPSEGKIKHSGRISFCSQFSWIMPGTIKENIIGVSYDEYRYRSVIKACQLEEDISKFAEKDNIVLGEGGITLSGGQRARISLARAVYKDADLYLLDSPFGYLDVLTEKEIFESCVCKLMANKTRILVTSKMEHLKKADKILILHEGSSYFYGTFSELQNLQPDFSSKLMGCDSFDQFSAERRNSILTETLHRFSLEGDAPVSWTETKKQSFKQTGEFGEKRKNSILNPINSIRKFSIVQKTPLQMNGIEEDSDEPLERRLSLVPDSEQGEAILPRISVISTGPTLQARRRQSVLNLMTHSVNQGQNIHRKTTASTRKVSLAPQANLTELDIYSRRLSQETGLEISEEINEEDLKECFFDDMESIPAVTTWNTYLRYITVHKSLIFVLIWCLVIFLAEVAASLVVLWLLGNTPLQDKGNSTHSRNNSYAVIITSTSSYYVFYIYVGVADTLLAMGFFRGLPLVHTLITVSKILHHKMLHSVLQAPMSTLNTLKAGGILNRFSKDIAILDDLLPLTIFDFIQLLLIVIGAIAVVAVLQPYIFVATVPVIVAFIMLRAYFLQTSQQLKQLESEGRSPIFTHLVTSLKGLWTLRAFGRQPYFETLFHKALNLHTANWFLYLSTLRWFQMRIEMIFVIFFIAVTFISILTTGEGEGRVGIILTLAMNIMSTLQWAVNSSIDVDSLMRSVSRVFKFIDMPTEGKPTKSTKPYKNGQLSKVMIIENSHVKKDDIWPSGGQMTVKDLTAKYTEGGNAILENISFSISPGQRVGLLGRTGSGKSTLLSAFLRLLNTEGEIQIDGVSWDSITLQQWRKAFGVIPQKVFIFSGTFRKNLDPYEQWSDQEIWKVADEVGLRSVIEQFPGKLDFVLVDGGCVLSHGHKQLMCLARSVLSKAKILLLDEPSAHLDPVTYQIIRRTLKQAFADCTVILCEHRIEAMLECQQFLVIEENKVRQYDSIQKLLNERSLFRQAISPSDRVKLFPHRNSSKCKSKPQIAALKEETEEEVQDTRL

For `COCC1CCN(c2cc(C(=O)O)nc3c2c(C(C)C)nn3-c2ccnc(N3CCOCC3)n2)CC1` [compound 589], at ΔF508-CFTR [1], the “% Activation” value worked out at 451.75% and the concentration for a half-maximal effect (EC50) is 0.303 µM. On ΔF508-CFTR [2] (setting [3]), the “% Activation” value came to 232.15% and the EC50 came out at 0.458 µM.
Regarding `CC(=O)N1CCN(c2cc(C(=O)O)nc3c2c(C)nn3-c2ccccc2)CC1` [compound 132, 4-(4-acetylpiperazin-1-yl)-3-methyl-1-phenyl-1H-pyrazolo[3,4-b]pyridine-6-carboxylic acid], the figures for the “% Activation” value at ΔF508-CFTR [1] and on ΔF508-CFTR [2] (setting [4]) were 156.4% and 13.45%, respectively. Moreover, the EC50 on ΔF508-CFTR [1] was 3.34 µM; at ΔF508-CFTR [2] (setting [5]), over 10 µM.
`O=C(O)c1cc(N2CCC(N3CCOCC3)CC2)c2c(C3CCC3)nn(-c3cc(F)ccc3F)c2n1` [compound 916, 3-cyclobutyl-1-(2,5-difluorophenyl)-4-[4-(morpholin-4-yl)piperidin-1-yl]-1H-pyrazolo[3,4-b]pyridine-6-carboxylic acid]: at ΔF508-CFTR [1], the “% Activation” value is recorded as 362.05% and the EC50 was found to be 1.38 µM. In addition, on ΔF508-CFTR [2] (setting [6]), the “% Activation” value is on record as 165.25% and the EC50 was 1.67 µM.
Consider `CC1(C)CC(c2nn(-c3ccccc3)c3nc(C(=O)O)cc(-c4ccc(N5CCC(C#N)CC5)nc4)c23)C1` [compound 430, 4-[6-(4-cyanopiperidin-1-yl)pyridin-3-yl]-3-(3,3-dimethylcyclobutyl)-1-phenyl-1H-pyrazolo[3,4-b]pyridine-6-carboxylic acid], for which, on ΔF508-CFTR [1], the “% Activation” value is recorded as 342.17% and the concentration for a half-maximal effect (EC50) amounted to 0.243 µM. Also, at ΔF508-CFTR [2] (setting [3]), the “% Activation” value amounted to 175.73% and the EC50 is 0.373 µM.
Taken in the same sequence, the figures for `COC(C)(C)C1CCN(c2cc(C(=O)O)nc3c2c(C(C)C)nn3-c2ccc(F)cc2)CC1` [compound 438, 1-(4-fluorophenyl)-4-[4-(2-methoxypropan-2-yl)piperidin-1-yl]-3-(propan-2-yl)-1H-pyrazolo[3,4-b]pyridine-6-carboxylic acid] were 507.27%, 0.387 µM, 277.03% and 0.331 µM.
Taken in the same sequence, the figures for `O=C(O)c1cc(N2CCC(F)(F)C2)c2c(C3CCC3)nn(-c3ccccc3)c2n1` [compound 441, 3-cyclobutyl-4-(3,3-difluoropyrrolidin-1-yl)-1-phenyl-1H-pyrazolo[3,4-b]pyridine-6-carboxylic acid] were 289.75%, 1.51 µM, 111.85% and 2.05 µM.
As for `O=C(O)c1cc(N2CC[C@@H](N3CCOCC3)C2)c2c(C3CCC3)nn(-c3ccccc3)c2n1` [compound 577, 3-cyclobutyl-4-[(3R)-3-(morpholin-4-yl)pyrrolidin-1-yl]-1-phenyl-1H-pyrazolo[3,4-b]pyridine-6-carboxylic acid], at ΔF508-CFTR [1], the “% Activation” value was 300.47% and the half-maximal effective concentration (EC50) stood at 1.15 µM. Also, on ΔF508-CFTR [2] (setting [3]), the “% Activation” value was found to be 108% and the EC50 came to 3.03 µM.
As to `NC(=O)c1nn(-c2ccccc2)c2nc(C(=O)O)cc(-c3ccc(N4CCOCC4)cc3)c12` [compound 64, 3-carbamoyl-4-[4-(morpholin-4-yl)phenyl]-1-phenyl-1H-pyrazolo[3,4-b]pyridine-6-carboxylic acid], the “% Activation” value turned out to be 113.3% on ΔF508-CFTR [1] and 3.754% at ΔF508-CFTR [2] (setting [4]). Further, the EC50 at ΔF508-CFTR [1] and at ΔF508-CFTR [2] (setting [5]) was over 10 µM each time.
In the case of `CC(C)c1nn(-c2ccc(F)cc2)c2nc(C(=O)O)cc(N3CCN(CCC(=O)N4CCCN(C)CC4)CC3)c12` [compound 779, 1-(4-fluorophenyl)-4-{4-[3-(4-methyl-1,4-diazepan-1-yl)-3-oxopropyl]piperazin-1-yl}-3-(propan-2-yl)-1H-pyrazolo[3,4-b]pyridine-6-carboxylic acid], the “% Activation” value was 121.2% at ΔF508-CFTR [1] and 6.923% at ΔF508-CFTR [2] (setting [3]). Moreover, the EC50 on ΔF508-CFTR [1] and at ΔF508-CFTR [2] (setting [3]) was 5 µM each time.
As to `O=C(O)c1cc(N2CCC(CN3CCN4C[C@@H](F)C[C@H]4C3)CC2)c2c(C3CCC3)nn(-c3ccccc3)c2n1` [compound 838, 3-cyclobutyl-4-(4-{[(7S,8aS)-7-fluorohexahydropyrrolo[1,2-a]pyrazin-2(1H)-yl]methyl]piperidin-1-yl)-1-phenyl-1H-pyrazolo[3,4-b]pyridine-6-carboxylic acid], on ΔF508-CFTR [1], the “% Activation” value worked out at 411.8% and the concentration for a half-maximal effect (EC50) was found to be 0.115 µM. Also, at ΔF508-CFTR [2] (setting [3]), the “% Activation” value worked out at 240.3% and the concentration giving a half-maximal response (EC50) turned out to be 0.269 µM.
Taken in the same sequence, the figures for `O=C(O)c1cc(N2CCC(N3CCOCC3)CC2)c2c(C3CCC3)nn(-c3ccnc(O)c3)c2n1` [compound 885, 3-cyclobutyl-1-(2-hydroxypyridin-4-yl)-4-[4-(morpholin-4-yl)piperidin-1-yl]-1H-pyrazolo[3,4-b]pyridine-6-carboxylic acid] were 255.5%, 2.45 µM, 66.2% and 3.34 µM.
With `CC(C)c1nn(-c2cccc(N(C)C)c2)c2nc(C(=O)O)cc(-c3ccc(N4CCC(C#N)CC4)nc3)c12` [compound 177], the results for the “% Activation” value at ΔF508-CFTR [1] and at ΔF508-CFTR [2] (setting [4]) were 606.47% and 364.43%, respectively. The results for the EC50 at ΔF508-CFTR [1] and at ΔF508-CFTR [2] (setting [5]) were 0.689 µM and 0.701 µM, respectively.
On to `O=C(O)c1cc(N2CCC3(CC2)CC(F)(F)CO3)c2c(C3CCC3)nn(-c3ccccc3)c2n1` [compound 453, 3-cyclobutyl-4-(3,3-difluoro-1-oxa-8-azaspiro[4.5]decan-8-yl)-1-phenyl-1H-pyrazolo[3,4-b]pyridine-6-carboxylic acid], for which, on ΔF508-CFTR [1], the “% Activation” value was determined as 275.35% and the EC50 amounted to 0.656 µM. Moreover, on ΔF508-CFTR [2] (setting [3]), the “% Activation” value stood at 110.68% and the 50% effective concentration (EC50) was determined as 0.716 µM.
`Cc1nn(-c2ccccc2)c2nc(C(=O)O)cc(OC3CC4(COC4)C3)c12` [compound 344, 3-methyl-4-[(2-oxaspiro[3.3]heptan-6-yl)oxy]-1-phenyl-1H-pyrazolo[3,4-b]pyridine-6-carboxylic acid]: the “% Activation” value at ΔF508-CFTR [1] worked out at 218.25%; at ΔF508-CFTR [2] (setting [4]), 69.225%. The EC50 was 1.77 µM at ΔF508-CFTR [1] and 2.51 µM on ΔF508-CFTR [2] (setting [5]).
For `COC[C@@H]1CCN(CC2CCN(c3cc(C(=O)O)nc4c3c(C3CCC3)nn4-c3ccccc3)CC2)C1` [compound 802, 3-cyclobutyl-4-(4-{[(3R)-3-(methoxymethyl)pyrrolidin-1-yl]methyl}piperidin-1-yl)-1-phenyl-1H-pyrazolo[3,4-b]pyridine-6-carboxylic acid], the results for the “% Activation” value at ΔF508-CFTR [1] and on ΔF508-CFTR [2] (setting [3]) were 439.7% and 218%, respectively. Moreover, the EC50 came to 0.771 µM at ΔF508-CFTR [1] and 0.462 µM at ΔF508-CFTR [2] (setting [3]).
As for `Cc1nn(-c2ccccc2)c2nc(C(=O)O)cc(-c3ccc(N4C[C@@H]5C[C@H]4CO5)cc3)c12` [compound 127, 3-methyl-4-{4-[(1S,4S)-2-oxa-5-azabicyclo[2.2.1]heptan-5-yl]phenyl}-1-phenyl-1H-pyrazolo[3,4-b]pyridine-6-carboxylic acid], the “% Activation” value was 401.3% on ΔF508-CFTR [1] and 221.4% on ΔF508-CFTR [2] (setting [4]). The values for the EC50 on ΔF508-CFTR [1] and at ΔF508-CFTR [2] (setting [5]) were 0.719 µM and 1.79 µM, respectively.
Taken in the same sequence, the figures for `CC(C)c1nn(-c2cccc(N3CC(O)C3)c2)c2nc(C(=O)O)cc(-c3ccc(N4CCOCC4)cc3)c12` [compound 225, 1-[3-(3-hydroxyazetidin-1-yl)phenyl]-4-[4-(morpholin-4-yl)phenyl]-3-(propan-2-yl)-1H-pyrazolo[3,4-b]pyridine-6-carboxylic acid] were 395.7%, 251.5%, 0.901 µM and 1.98 µM.
For `CCOCC(=O)N1CCN(c2cc(C(=O)O)nc3c2c(C(C)C)nn3-c2ccc(F)cc2)CC1` [compound 775, 4-[4-(ethoxyacetyl)piperazin-1-yl]-1-(4-fluorophenyl)-3-(propan-2-yl)-1H-pyrazolo[3,4-b]pyridine-6-carboxylic acid], the “% Activation” value was found to be 262.4% at ΔF508-CFTR [1] and 93.07% at ΔF508-CFTR [2] (setting [3]). Besides, the 50% effective concentration (EC50) on ΔF508-CFTR [1] and at ΔF508-CFTR [2] (setting [3]) was 1.67 µM throughout.
In the case of `CN(c1ncc(-c2cc(C(=O)O)nc3c2c(C2CCC2)nn3-c2cccc(N3CCCC3)c2)cn1)C1CCOCC1` [compound 277, 3-cyclobutyl-4-{2-[methyl(oxan-4-yl)amino]pyrimidin-5-yl}-1-[3-(pyrrolidin-1-yl)phenyl]-1H-pyrazolo[3,4-b]pyridine-6-carboxylic acid], the “% Activation” value stood at 608.57% on ΔF508-CFTR [1] and 356.47% on ΔF508-CFTR [2] (setting [4]). Further, the EC50 at ΔF508-CFTR [1] came out at 0.515 µM; at ΔF508-CFTR [2] (setting [5]), 0.513 µM.
With `CCN(CC)CCC1CCN(c2cc(C(=O)O)nc3c2c(C2CCC2)nn3-c2ccccc2)CC1` [compound 448, 3-cyclobutyl-4-{4-[2-(diethylamino)ethyl]piperidin-1-yl}-1-phenyl-1H-pyrazolo[3,4-b]pyridine-6-carboxylic acid], at ΔF508-CFTR [1], the “% Activation” value is given as 387.15% and the EC50 worked out at 0.646 µM. On ΔF508-CFTR [2] (setting [3]), the “% Activation” value is given as 239.2% and the concentration for a half-maximal effect (EC50) came to 1.08 µM.
